This note sets out measurements from patent US20220127247A1, “N-(PYRIDIN-2-YL)PYRIDINE-SULFONAMIDE DERIVATIVES AND THEIR USE IN THE TREATMENT OF DISEASE” (NOVARTIS AG, priority 2019, published 2022).

Assay [1] concerns the target T1, delF508-CFTR (Homo sapiens, UniProt P13569, DEL508-508).
T1 construct: expressed in transfected cells
The assay is described as follows: delF508-CFTR functional activity in primary human bronchial epithelial cells (HBECs), Multi-Transepithelial Clamp Circuit (MTECC-24) assay. It counts as cell-based. The note with it: for EC50: primary human delF508-CFTR bronchial epithelial cells, 24 h with compound, equivalent short circuit current (Ieq), forskolin plus potentiator, mean of at least two replicates, read-out: MTECC24-CFHBEC EC50; for MTECC24-CFHBEC Amax %: test compound added 24 h before assay, with potentiator (S)-3-amino-6-methoxy-N-(3,3,3-trifluoro-2-hydroxy-2-methylpropyl)-5-(trifluoromethyl)picolinamide, relative to 2 μM 3-(6-(1-(2,2-difluorobenzo[d][1,3]dioxol-5-yl)cyclopropane-1-carboxamido)-3-methylpyridin-2-yl)benzoic acid + 0.5 μM N-(2,4-di-tert-butyl-5-hydroxyphenyl)-4-oxo-1,4-dihydroquinoline-3-carboxamide. An excerpt: Measurement of delF508-CFTR Functional Activity in Primary Human Bronchial Epithelial Cells (HBECs) Using Multi-Transepithelial Clamp Circuit (MTECC-24) Assay
This assay measures the functional activity of the CFTR channel (Chloride ion transport) in patient derived primary human bronchial epithelial cells with forskolin activation and in the presence of the CFTR corrector/potentiator combination.
Primary human delF508-CFTR bronchial epithelial cells were and cultured according to previously established methods (Neuberger, T. et, al., Methods in Molecular Biology, 2011, 741, pp 39-54). Briefly, before thawing the HBEC cells, T25 flasks were coated with 2 mL of 3T3 conditioned media (MTI-GlobalStem, Cat #GSM9100) for at least 12 hours in 37° C. CO2 incubator. 1.7×10^5 cells were seeded into one T25 flask with 5 mL of HBE growth media (BEBM with supplements (Lonza, Cat #CC-3170) with 10 nM of retinoic acid (Sigma, Cat #R-2625) and 1% of PSA (Hyclone, Cat #SV30079.01). Media was changed every day till the cells were 100% confluent. Cells were seeded into T75 flasks (pre-coated with 5 mL of 3T3 conditioned media for more than 12 hrs) at 4.95×10^5 cells/T75 flask in 15 mL of HBE growth media. Flasks were fed everyday with fresh HBE growth media until the cells were confluent. 24-well transwell plates (Corning, Cat #3378) were coated with 3T3 conditioned media (70 μL on top of the filter, 350 μL to the bottom of the well) overnight in the 37° C. CO2 incubator. Cells were seeded in the pre-coated 24-well transwell plates at 1.7×10^5 cell/well with 700 μL of growth media at the bottom of the well and 200 μL of growth media at the top of the filter. After 24 hrs, cells were switched into HBE differentiation media ((DMEM/F12 (Gibco, Cat #11330-032) supplement with 2% Ultroser G (Pall, Cat #15950-017), 2% of Fetal Clone II (Hyclone, Cat #SH30066.03), 0.25% Bovine Brain Extract (Lonza, Cat #CC-4098), 1% of PSA, 2.5 μg/mL of Insulin (Sigma, Cat #19278), 20 nM of Hydrocortisone (Sigma, Cat #H0888), 500 nM of Triiodothyronine (Sigma, Cat #T6397), 2.5 μg/mL of Transferrin (Sigma, Cat #T8158), 250 nM of Ethanolamine (Sigma, Cat #E0135), 1.5 μM of Epinephrine (Sigma, Cat #E4250), 250 nM of Phosphoethanolamine (Sigma, Cat #P0503), 10 nM of retinoic acid)) with 200 μL on top of the filter (apical side) and 700 μL at the bottom of the well (basolateral side). Cells were fed every other day with the differentiation media. After 4 days, cells were exposed to air/liquid interface. Then cells were fed every other day for 4 weeks before fully differentiated.
Cells were washed with 3 mM DTT in PBS at 70 ul/well for 30 min at 37° C. 6 days before the assay. 3 days before the assay, cells were washed again with PBS at 70 ul/well for 30 min at 37° C. Then cells were treated with compound for 24 hrs before the assay.
Following 24 hr treatment with compound, cells were transferred into plates containing 750 ul of assay media on basolateral side and 250 ul on apical side (Assay medium: F-12 Coon's modified, 20 mM HEPES pH7.4 with TRIS Base, No FCS or bicarbonate). The plates wee then transferred to the heated plate compartments (basolateral buffer temperature ˜36.5° C. on the heating block) of the TECC24 system for 45 mins prior to measurements.
Modulators were added sequentially as follows while the TECC24 instrument recorded the equivalent short circuit current (Ieq):
Prior to dilution into assay medium the stocks were as follows: • Benzamil stock: 10 mM in DMSO • Forskolin Stock: 50 mM in DMSO • N-(2,4-di-tert-butyl-5-hydroxyphenyl)-1,4-dihydro-4-oxoquinoline-3-carboxamide: 50 mM in DMSO • (S)-3-amino-6-methoxy-N-(3,3,3-trifluoro-2-hydroxy-2-methylpropyl)-5-(trifluoromethyl)picolinamide: 50 mM stock 100% DMSO • Bumetanide stock: 20 mM in EtOH
The data was normalized using the median signal from wells treated with 0.1% DMSO as a baseline. Curve fitting and EC50 calculations were performed using the following equation: […]

For assay [2], the target named is T1, delF508-CFTR. Kind of assay: Measurement of delF508-CFTR-HRP surface expression in CFBE41o- cells. It counts as cell-based. As to conditions: for EC50: HRP-tagged delF508-CFTR in CFBE41o- cells, 24 h with compound, luminescence, 10-point curve, top 10 μM; for Emax: efficacy relative to reference compound 3-(6-(1-(2,2-difluorobenzo[d][1,3]dioxol-5-yl)cyclopropane-1-carboxamido)-3-methylpyridin-2-yl)benzoic acid, CFBE41o- cells, 24 h, read-out: DelF508-CFTR-HRP Amax %. In a few lines: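 CFBE41o- cells stably expressing delF508-CFTR with HRP in the fourth extracellular loop, induced with 500 ng/mL doxycycline for 48 h, then treated with compound (top 10 μM, 10-point 3-fold) for 24 h at 37° C. Surface HRP detected by luminescence with cell-impermeant substrate; EC50 from logistic fit of triplicates, normalized to lowest concentration.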

T1 sequence (P13569 with tags, fused parts or gaps DEL508-508): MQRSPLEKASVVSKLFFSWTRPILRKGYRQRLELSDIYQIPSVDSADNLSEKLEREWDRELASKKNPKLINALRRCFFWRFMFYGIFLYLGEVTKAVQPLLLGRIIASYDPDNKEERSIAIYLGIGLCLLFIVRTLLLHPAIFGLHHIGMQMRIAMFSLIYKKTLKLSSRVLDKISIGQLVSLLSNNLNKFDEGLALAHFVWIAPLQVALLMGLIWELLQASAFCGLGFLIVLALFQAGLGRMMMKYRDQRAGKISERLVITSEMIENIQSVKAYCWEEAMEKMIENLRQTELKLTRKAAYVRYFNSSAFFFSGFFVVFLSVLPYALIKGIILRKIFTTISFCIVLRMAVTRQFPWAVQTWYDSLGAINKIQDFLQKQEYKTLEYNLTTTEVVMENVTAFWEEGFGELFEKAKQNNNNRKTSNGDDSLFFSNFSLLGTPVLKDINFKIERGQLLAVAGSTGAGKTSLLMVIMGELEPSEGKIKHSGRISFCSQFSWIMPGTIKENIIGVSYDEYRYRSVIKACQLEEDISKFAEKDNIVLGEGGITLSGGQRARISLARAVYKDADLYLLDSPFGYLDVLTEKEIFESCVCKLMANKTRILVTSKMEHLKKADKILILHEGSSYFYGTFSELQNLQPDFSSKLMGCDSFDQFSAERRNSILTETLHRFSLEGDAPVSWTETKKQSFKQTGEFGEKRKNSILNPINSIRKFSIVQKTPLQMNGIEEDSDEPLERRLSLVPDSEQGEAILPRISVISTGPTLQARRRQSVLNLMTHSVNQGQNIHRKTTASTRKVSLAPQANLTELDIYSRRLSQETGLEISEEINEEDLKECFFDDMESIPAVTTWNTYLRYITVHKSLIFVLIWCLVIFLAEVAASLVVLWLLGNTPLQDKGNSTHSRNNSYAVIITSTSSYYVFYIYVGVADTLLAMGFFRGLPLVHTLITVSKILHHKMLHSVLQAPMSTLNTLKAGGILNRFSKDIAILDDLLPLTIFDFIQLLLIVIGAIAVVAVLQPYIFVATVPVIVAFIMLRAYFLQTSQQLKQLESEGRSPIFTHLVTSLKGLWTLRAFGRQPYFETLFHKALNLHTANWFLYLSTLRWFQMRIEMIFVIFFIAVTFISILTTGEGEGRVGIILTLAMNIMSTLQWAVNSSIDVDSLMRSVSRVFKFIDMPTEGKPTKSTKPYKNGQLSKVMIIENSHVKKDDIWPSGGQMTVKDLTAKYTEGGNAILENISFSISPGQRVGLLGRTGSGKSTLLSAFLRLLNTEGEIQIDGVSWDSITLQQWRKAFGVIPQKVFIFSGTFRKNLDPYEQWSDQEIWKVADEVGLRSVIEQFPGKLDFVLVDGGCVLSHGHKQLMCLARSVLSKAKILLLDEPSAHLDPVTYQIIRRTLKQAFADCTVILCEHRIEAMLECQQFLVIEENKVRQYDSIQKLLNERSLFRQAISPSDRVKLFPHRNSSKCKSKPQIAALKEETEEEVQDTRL

Regarding `Cc1ccc(F)cc1-c1nc(NS(=O)(=O)c2cccc(N(C)CCCCC(=O)O)n2)ccc1C(F)(F)F` [Compound 68, 5-((6-(N-(6-(5-fluoro-2-methylphenyl)-5-(trifluoromethyl)pyridin-2-yl)sulfamoyl)pyridin-2-yl)(methyl)amino)pentanoic Acid], in assay [1], the EC50 worked out at 0.423 µM and the “MTECC24-CFHBEC Amax %” value was 116%. Further, in assay [2], the EC50 amounted to 1.35 µM and the Emax was 996%.
In the case of `Cc1ccc(F)cc1-c1nc(NS(=O)(=O)c2cccc(N3CCC[C@](C)(CC(=O)O)C3)n2)ccc1C(F)(F)F` (single isomer, unassigned) [Compound 65], in assay [1], the EC50 was determined as 0.031 µM and the “MTECC24-CFHBEC Amax %” value was 155%. The EC50 in assay [2] was found to be 1.73 µM.
The matching figures for `CCc1ccc(F)cc1-c1nc(NS(=O)(=O)c2cccc(N(C)CCCC(=O)O)n2)ccc1C(F)(F)F` [Compound 93, 4-((6-(N-(6-(2-ethyl-5-fluorophenyl)-5-(trifluoromethyl)pyridin-2-yl)sulfamoyl)pyridin-2-yl)(methyl)amino)butanoic Acid]: 0.04 µM, 235% and 1.43 µM.
Consider `CCCN(CCCC(=O)O)c1cccc(S(=O)(=O)Nc2ccc(C(F)(F)F)c(-c3cc(F)ccc3C)n2)n1` [Compound 131, 4-((6-(N-(6-(5-fluoro-2-methylphenyl)-5-(trifluoromethyl)pyridin-2-yl)sulfamoyl)pyridin-2-yl)(propyl)amino)butanoic Acid], for which the figures for the EC50 in assay [1] and in assay [2] were 0.327 µM and 1.38 µM, respectively. The “MTECC24-CFHBEC Amax %” value in assay [1] came out at 95%.
As to `CCCCN(CCCC(=O)O)c1cccc(S(=O)(=O)Nc2ccc(C(F)(F)F)c(-c3ccccc3C)n2)n1` [Compound 87, 4-(butyl(6-(N-(6-(o-tolyl)-5-(trifluoromethyl)pyridin-2-yl)sulfamoyl)pyridin-2-yl)amino)butanoic Acid], in assay [1], the EC50 is 0.104 µM and the “MTECC24-CFHBEC Amax %” value is recorded as 269%. Moreover, in assay [2], the EC50 is 1.38 µM.
With `CCN(CCC(=O)O)c1cccc(S(=O)(=O)Nc2ccc(C(F)(F)F)c(-c3cccc(F)c3C)n2)n1` [Compound 56, 3-(ethyl(6-(N-(6-(3-fluoro-2-methylphenyl)-5-(trifluoromethyl)pyridin-2-yl)sulfamoyl)pyridin-2-yl)amino)propanoic Acid], in assay [1], the 50% effective concentration (EC50) was determined as 0.373 µM and the “MTECC24-CFHBEC Amax %” value stood at 131%. Also, in assay [2], the EC50 is 2.17 µM and the Emax stood at 906%.
On to `CCc1ccccc1-c1nc(NS(=O)(=O)c2cccc(N3CCC[C@@H](CC(=O)O)C3)n2)ccc1C(F)(F)F` [Compound 85, (S)-2-(1-(6-(N-(6-(2-ethylphenyl)-5-(trifluoromethyl)pyridin-2-yl)sulfamoyl)pyridin-2-yl)piperidin-3-yl)acetic Acid], for which the EC50 in assay [1] was found to be 0.03 µM; in assay [2], 1.41 µM. Besides, the “MTECC24-CFHBEC Amax %” value in assay [1] is on record as 152%.
For `Cc1ccccc1-c1nc(NS(=O)(=O)c2cccc(N(CCCC(=O)O)CC(C)C)n2)ccc1C(F)(F)F` [Compound 129, 4-(isobutyl(6-(N-(6-(o-tolyl)-5-(trifluoromethyl)pyridin-2-yl)sulfamoyl)pyridin-2-yl)amino)butanoic Acid], the EC50 in assay [1] was determined as 0.154 µM; in assay [2], 1.08 µM. Also, the “MTECC24-CFHBEC Amax %” value in assay [1] is on record as 83%.
In the case of `Cc1ccccc1-c1nc(NS(=O)(=O)c2cccc(N3CCC[C@H](CCC(=O)O)C3)n2)ccc1C(F)(F)F` (single isomer, unassigned) [Compound 62], in assay [1], the EC50 was 0.009 µM and the “MTECC24-CFHBEC Amax %” value was 150%. Besides, the EC50 in assay [2] came to 1.22 µM.
The matching figures for `CC(C)c1ccccc1-c1nc(NS(=O)(=O)c2cccc(N(C)CCCC(=O)O)n2)ccc1C(F)(F)F` [Compound 90, 4-((6-(N-(6-(2-isopropylphenyl)-5-(trifluoromethyl)pyridin-2-yl)sulfamoyl)pyridin-2-yl)(methyl)amino)butanoic Acid]: 0.005 µM, 135% and 1.35 µM.
Regarding `Cc1ccc(F)cc1-c1nc(NS(=O)(=O)c2cccc(N(CCCC(=O)O)C(C)C)n2)ccc1C(F)(F)F` [Compound 95, 4-((6-(N-(6-(5-fluoro-2-methylphenyl)-5-(trifluoromethyl)pyridin-2-yl)sulfamoyl)pyridin-2-yl)(isopropyl)amino)butanoic Acid], in assay [1], the EC50 came to 0.024 µM and the “MTECC24-CFHBEC Amax %” value was 148%. In assay [2], the EC50 worked out at 1.68 µM.
For the molecule `CCc1ccc(F)cc1-c1nc(NS(=O)(=O)c2cccc(N(CC)CCC(=O)O)n2)ccc1C(F)(F)F` [Compound 81, 3-(ethyl(6-(N-(6-(2-ethyl-5-fluorophenyl)-5-(trifluoromethyl)pyridin-2-yl)sulfamoyl)pyridin-2-yl)amino)propanoic Acid], in assay [1], the EC50 worked out at 0.035 µM and the “MTECC24-CFHBEC Amax %” value amounted to 145%. The EC50 in assay [2] came to 1.77 µM.
In the case of `CCCN(CCCC(=O)O)c1cccc(S(=O)(=O)Nc2ccc(C(F)(F)F)c(-c3ccccc3C)n2)n1` [Compound 132, 4-(propyl(6-(N-(6-(o-tolyl)-5-(trifluoromethyl)pyridin-2-yl)sulfamoyl)pyridin-2-yl)amino)butanoic Acid], the EC50 in assay [1] came to 0.095 µM; in assay [2], 1.58 µM. For the same molecule, in assay [1], the “MTECC24-CFHBEC Amax %” value is 232%.
On to `CCN(CCC(=O)O)c1cccc(S(=O)(=O)Nc2ccc(C(F)(F)F)c(-c3ccccc3C3CC3)n2)n1` [Compound 80, 3-((6-(N-(6-(2-cyclopropylphenyl)-5-(trifluoromethyl)pyridin-2-yl)sulfamoyl)pyridin-2-yl)(ethyl)amino)propanoic Acid], for which, in assay [1], the EC50 turned out to be 0.105 µM and the “MTECC24-CFHBEC Amax %” value came to 95%. Further, the EC50 in assay [2] was found to be 1.93 µM.
`Cc1ccccc1-c1nc(NS(=O)(=O)c2cccc(N(CCCC(=O)O)C3CC3)n2)ccc1C(F)(F)F` [Compound 125, 4-(cyclopropyl(6-(N-(6-(o-tolyl)-5-(trifluoromethyl)pyridin-2-yl)sulfamoyl)pyridin-2-yl)amino)butanoic Acid]: in assay [1], the EC50 worked out at 0.422 µM and the “MTECC24-CFHBEC Amax %” value is given as 114%. In addition, in assay [2], the EC50 was found to be 1.36 µM and the Emax came to 643%.

Broadly, the EC50 is the midpoint of the concentration-response curve.
